The subject of series [1] is constitutively activated ALK1-5. Description: Cell-based luciferase reporter assays with constitutively activated ALK1-5, potency comparison. The settings on record: ALK1-5, BRE-Luc / CAGA-Luc. The source says:
[…]. Inhibition curves of BMP and TGF-β transcriptional activity mediated by constitutively activated ALK1-5 in a cell-based luciferase reporter assays. […]. Data shown are representative of more than 3 independent experiments, with data plotted as mean±S.E.M. (n=3 replicates)
C2C12 myofibroblast cells stably expressing firefly luciferase under the control of BMP-responsive promoter element (BRE-Luc) were generously provided by Dr. Peter ten Dijke (Leiden University Medical Center, NL). Human embryonic kidney 293T cells stably transfected with the TGF-β-responsive element fused to luciferase gene (CAGA-Luc) were a kind gift of Dr. Howard Weiner (Brigham and Women's Hospital, Boston, Mass.). C2C12 Bre-Luc and 293T CAGA-Luc cells were seeded at 20,000 cells in DMEM supplemented with 2% FBS per well in tissue culture treated 96-well plates (Costar® 3610; Corning). The cells were incubated for 1 h (37° C. and 10% CO2) and allowed to settle and attach. […]. Cells were then incubated for 30 min. […] Media was discarded and firefly luciferase activity was measured (Promega™) according to manufacturer's protocol. Light output was measured using a Spectramax™ L luminometer (Molecular Devices™) with an integration time of one second per well. […]
Background: A reporter such as luciferase makes a cellular process visible.

Series [2] addresses T1, ALK4/ACVR1B (Homo sapiens, UniProt P36896).
T1 sequence (P36896 1-505 T206D): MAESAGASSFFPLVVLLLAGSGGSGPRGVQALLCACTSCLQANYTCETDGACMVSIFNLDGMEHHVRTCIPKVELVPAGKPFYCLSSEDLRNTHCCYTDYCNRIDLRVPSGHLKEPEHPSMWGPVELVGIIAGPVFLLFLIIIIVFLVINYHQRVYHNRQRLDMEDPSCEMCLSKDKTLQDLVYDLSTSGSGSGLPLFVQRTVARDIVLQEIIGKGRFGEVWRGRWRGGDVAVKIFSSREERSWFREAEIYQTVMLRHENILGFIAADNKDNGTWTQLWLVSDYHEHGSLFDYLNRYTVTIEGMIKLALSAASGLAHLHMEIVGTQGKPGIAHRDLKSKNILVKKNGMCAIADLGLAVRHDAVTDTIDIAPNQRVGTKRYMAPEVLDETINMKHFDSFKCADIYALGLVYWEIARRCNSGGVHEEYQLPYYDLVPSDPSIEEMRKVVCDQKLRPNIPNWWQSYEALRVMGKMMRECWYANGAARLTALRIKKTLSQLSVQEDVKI
The experiment in a line: CAGA-Luc luciferase reporter in HEK293 cells driven by constitutively active ALK4. The series is classed as cell-based. The settings on record: Ad.caALK4, read-out: IC50 inhibition of caALK4 activity (CAGA-Luc). As to the method:
(§1) Inhibition of BMP-mediated gene transcription was measured via the activity of a BMP-response element luciferase reporter (BRE-Luc) stably expressed in the C2C12 cell line as a measure of BMP signaling inhibition, with gene expression being driven by constitutively active (ca-) forms of BMP type I receptors ALK1, ALK2, and ALK3 (FIG. 1). This was measured in comparison to the inhibition of TGF-β or Activin signaling via CAGA-Luc reporter construct stably expressed in HEK293 cells, with gene expression being driven by constitutively active (ca-) forms of Activin/TGF=β type I receptors ALK4 or ALK5 (FIG. 1). […]. C2C12 myofibroblast cells stably expressing firefly luciferase under the control of BMP-responsive promoter element (BRE-Luc) were generously provided by Dr. Peter ten Dijke (Leiden University Medical Center, NL). Human embryonic kidney 293T cells stably transfected with the TGF-β-responsive element fused to luciferase gene (CAGA-Luc) were a kind gift of Dr. Howard Weiner (Brigham and Women's Hospital, Boston, Mass.). […] Media was discarded and firefly luciferase activity was measured (Promega™) according to manufacturer's protocol. Light output was measured using a Spectramax™ L luminometer (Molecular Devices™) with an integration time of one second per well. […]

The conditions of series [3]: 60 mg to 250 mg p.o. per day; cited from earlier work.
Series [4] has as its system ACVR1^[R206H]FlEx/+] knock-in mice. The experiment in a line: ACVR1^[R206H]FlEx/+] knock-in mouse model of FOP. How it is done:
Mice were maintained in accordance with Institutional Animal Care and Use Committee guidelines under approved experimental protocols. […] Heterotopic bone formation in these mice was introduced via single retro-popliteal injection of adenoviral Cre-recombinase at 1×10^8 PFU at postnatal day 7 (P7). […] Bone formation as a function of a loss of passive range of motion, via dorsiflexion of the left ankle joint was assessed daily. […] On day 35 for inducible ACVR1^Q207D mice, and on day 90-120 for inducible ACVR1^R206H mice were sacrificed and imaged via X-ray radiography (MS FX In-Vivo Pro: Carestream Health). Micro-computed tomography (micro-CT) imaging was carried out on samples fixed overnight in 1% paraformaldehyde followed by scanning (μCT35, ScanCo).

Series [5] has as its target T2, ALK5/TGFBR1 (Homo sapiens, UniProt P36897, T204D).
T2 construct: expressed in transfected cells; host or cells: 293T CAGA-Luc cells infected with Ad.caALK5 (gift of Dr. Akiko Hata)
T2 sequence (P36897 34-503 T204D): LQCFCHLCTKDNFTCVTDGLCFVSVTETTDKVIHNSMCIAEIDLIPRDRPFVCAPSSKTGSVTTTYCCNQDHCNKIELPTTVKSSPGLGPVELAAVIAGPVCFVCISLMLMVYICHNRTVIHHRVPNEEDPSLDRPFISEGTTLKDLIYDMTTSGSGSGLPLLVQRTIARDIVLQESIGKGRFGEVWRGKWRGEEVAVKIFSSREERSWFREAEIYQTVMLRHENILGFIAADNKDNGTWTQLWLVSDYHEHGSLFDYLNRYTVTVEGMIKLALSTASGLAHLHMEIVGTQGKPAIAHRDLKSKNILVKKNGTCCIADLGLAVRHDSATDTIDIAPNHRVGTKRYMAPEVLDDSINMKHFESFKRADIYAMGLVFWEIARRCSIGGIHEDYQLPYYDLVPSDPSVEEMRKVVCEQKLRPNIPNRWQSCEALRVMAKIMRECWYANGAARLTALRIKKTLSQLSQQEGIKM
The experiment in a line: CAGA-Luc luciferase reporter in HEK293 cells driven by constitutively active ALK5. Format: cell-based. The note with it: Ad.caALK5, read-out: IC50 inhibition of caALK5 activity (CAGA-Luc). How it is done: as §1

The test system of series [6] is ACVR1^Q207D (CAG-Z-EGFP-caALK2) transgenic mice. The experiment in a line: Inducible ACVR1^Q207D-Tg (CAG-Z-EGFP-caALK2) mouse model of heterotopic ossification / FOP. The settings on record: for heterotopic bone lesions on x-ray: 6 mg/kg i.p. twice daily; for passive range-of-motion: 6 mg/kg intraperitoneally twice daily.
Setting [7] is: 25 mg/kg oral gavage daily for first 28 days only, observed up to 90 days.
[8] abbreviates: 25 mg/kg intraperitoneally twice daily for 28 days.

Entries after “also recorded” stand apart in the source; their conditions may differ.

Usually IC50 stands for the concentration needed to halve the response being measured. In the case of `CN1CCN(CCOc2cc(OC3CCOCC3)c3c(Nc4c(Cl)ccc5c4OCO5)ncnc3c2)CC1` [AZD-0530, N-(5-chloro-1,3-benzodioxol-4-yl)-7-[2-(4-methylpiperazin-1-yl)ethoxy]-5-[(tetrahydro-2H-pyran-4-yl)oxy]quinazolin-4-amine], the “decreased potency against all receptors compared with LDN-193189” value in series [1] was “approximately 10 fold”. The IC50 in series [2] came to 220 nM. For the same compound, the “tolerability in healthy human adults” value in series [3] was “good tolerability”. Further, the “change in weight compared to vehicle treated controls” value in series [4] (25 mg/kg oral gavage daily for 28 days) is “No statistically significant change”. Also, in series [4] (setting [7]), the “progressive loss of range of motion” value is “protected” and the radiographic bone formation entry is on record as “protected”. The IC50 in series [5] came to 220 nM.
`c1ccc2c(-c3cnn4cc(-c5ccc(N6CCNCC6)cc5)cnc34)ccnc2c1` [LDN-193189]: in series [6], the “heterotopic bone lesions on x-ray” value was “preventing heterotopic bone lesions” and the passive range-of-motion result is on record as “effective in preserving range of motion; also recorded: mobility was almost entirely preserved”.
For `c1cc(-c2cnn3cc(-c4ccc(N5CCNCC5)cc4)cnc23)c2cccnc2c1` [LDN-212854], in that order: “preventing heterotopic bone lesions” and “effective in preserving range of motion; also recorded: mobility was almost entirely preserved”.
`COc1cc2c(Nc3ccc(Br)cc3F)ncnc2cc1OCC1CCN(C)CC1` [ZD-6474]: in series [6] (setting [8]), the radiographic heterotopic ossification entry was “did not significantly attenuate; also recorded: no evidence of improvement” and the range-of motion entry is listed as “no evidence of improvement”.

The values above are taken from patent publication US10583143B2, “Methods and compositions for the treatment or prevention of abnormal bone formation in a soft tissue” (THE BRIGHAM AND WOMEN'S HOSPITAL, INC., priority 2015, dated 2020).
